Like-named read-outs stand apart in the source and are kept apart here. Peptide text beside a SMILES is read from it. * marks the point of attachment. X18 = O=C1C=CC(=O)N1CCOCCOCCOCCOCCOCCOCCCCCCCC(=O)*; X23 = O=C1C=CC(=O)N1CCOCCOCCOCCOCCOCCOCCCCC(=O)*; Butanoyl(4-maleimido) = O=C1C=CC(=O)N1CCCC(=O)*; X11 = O=C1C=CC(=O)N1CCOCCOCCOCCOCCOCCCCCC(=O)*; X44 = O=C1C=CC(=O)N1c1ccc(CCCCCCCC(=O)*)cc1; X19 = O=C1C=CC(=O)N1CCOCCOCCOCCOCCOCC(=O)*; X6 = O=C1C=CC(=O)N1CCOCCOCCOCCCCCCCC(=O)*; X69 = O=C1C=CC(=O)N1c1ccc(CCCCC(=O)*)cc1; X77 = O=C1C=CC(=O)N1CCCCCCCCCCC(=O)*; X51 = O=C1C=CC(=O)N1c1ccccc1CC(=O)*; X83 = O=C1C=CC(=O)N1CCCCCCC(=O)*
Test: Half-lives and pharmacokinetic parameters of polypeptides vs HM-1
Conditions: in vivo

SMILES | AUC(0-inf) [µg·h/mL] | MRT inf [h] | clearance [L/h/kg] | half-life (T1/2β (half-life)) [h] | AUC(0-inf) (read-out: AUC0-∞) [µg·h/mL] | clearance (read-out: CL (converted)) [L/h/kg] | MRT inf (read-out: MRT0-∞) [h] | half-life (read-out: T1/2β (half-life) (converted)) [h]
C[C@H](NC(=O)CNC(=O)[C@H](CCCNC(=N)N)NC(=O)Cc1ccccc1N1C(=O)C=CC1=O)C(=O)N[C@@H](CC(=O)O)C(=O)N[C@@H](CCCNC(=N)N)C(=O)N[C@@H](C)C(=O)NCC(=O)NCC(=O)NCC(=O)NCC(=O)N[C@@H](CCCNC(=N)N)C(=O)NCC(=O)N[C@@H](CC(=O)O)C(=O)O [X13] (X51-RGADRAGGGGRGD-OH) | 33.6 ± 7.34 | 60 ± 12.5 | 0.0298 | 41.58 ± 0.34 |  |  |  | 
C[C@H](NC(=O)CNC(=O)[C@H](CCCNC(=N)N)NC(=O)CCCCOCCOCCOCCOCCOCCOCCN1C(=O)C=CC1=O)C(=O)N[C@@H](CC(=O)O)C(=O)N[C@@H](CCCNC(=N)N)C(=O)N[C@@H](C)C(=O)NCC(=O)NCC(=O)NCC(=O)NCC(=O)N[C@@H](CCCNC(=N)N)C(=O)NCC(=O)N[C@@H](CC(=O)O)C(=O)O [X87] (X23-RGADRAGGGGRGD-OH) | 33.4 ± 8.45 | 59.8 ± 10.6 | 0.0299 | 41.42 ± 0.31 |  |  |  | 
C[C@H](NC(=O)CNC(=O)[C@H](CCCNC(=N)N)NC(=O)COCCOCCOCCOCCOCCN1C(=O)C=CC1=O)C(=O)N[C@@H](CC(=O)O)C(=O)N[C@@H](CCCNC(=N)N)C(=O)N[C@@H](C)C(=O)NCC(=O)NCC(=O)NCC(=O)NCC(=O)N[C@@H](CCCNC(=N)N)C(=O)NCC(=O)N[C@@H](CC(=O)O)C(=O)O [X77] (X19-RGADRAGGGGRGD-OH) | 34.6 ± 8.18 | 61.9 ± 9.54 | 0.0289 | 42.91 ± 0.25 |  |  |  | 
C[C@H](NC(=O)CNC(=O)[C@H](CCCNC(=N)N)NC(=O)CCCCCCCOCCOCCOCCOCCOCCOCCN1C(=O)C=CC1=O)C(=O)N[C@@H](CC(=O)O)C(=O)N[C@@H](CCCNC(=N)N)C(=O)N[C@@H](C)C(=O)NCC(=O)NCC(=O)NCC(=O)NCC(=O)N[C@@H](CCCNC(=N)N)C(=O)NCC(=O)N[C@@H](CC(=O)O)C(=O)O [X90] (X18-RGADRAGGGGRGD-OH) | 27.6 ± 8.16 | 49.3 ± 11.5 | 0.0363 | 34.18 ± 0.31 |  |  |  | 

The next lines start with the values.

AUC(0-inf) [µg·h/mL] | MRT inf [h] | clearance [L/h/kg] | half-life (T1/2β (half-life)) [h] | AUC(0-inf) (read-out: AUC0-∞) [µg·h/mL] | clearance (read-out: CL (converted)) [L/h/kg] | MRT inf (read-out: MRT0-∞) [h] | half-life (read-out: T1/2β (half-life) (converted)) [h] | SMILES
31.2 ± 7.21 | 55.8 ± 12.9 | 0.0321 | 38.64 ± 0.25 |  |  |  |  | C[C@H](NC(=O)CNC(=O)[C@H](CCCNC(=N)N)NC(=O)CCCCCCCCCCN1C(=O)C=CC1=O)C(=O)N[C@@H](CC(=O)O)C(=O)N[C@@H](CCCNC(=N)N)C(=O)N[C@@H](C)C(=O)NCC(=O)NCC(=O)NCC(=O)NCC(=O)N[C@@H](CCCNC(=N)N)C(=O)NCC(=O)N[C@@H](CC(=O)O)C(=O)O [X10] (X77-RGADRAGGGGRGD-OH)
 |  |  |  | 33.8 ± 7.66 | 0.0296 | 60.5 ± 13.2 | 41.92 ± 0.32 | C[C@H](NC(=O)CNC(=O)[C@H](CCCNC(=N)N)NC(=O)CCCN1C(=O)C=CC1=O)C(=O)N[C@@H](CC(=O)O)C(=O)N[C@@H](CCCNC(=N)N)C(=O)N[C@@H](C)C(=O)NCC(=O)NCC(=O)NCC(=O)NCC(=O)N[C@@H](CCCNC(=N)N)C(=O)NCC(=O)N[C@@H](CC(=O)O)C(=O)O [X3] ({Butanoyl(4-maleimido)}-RGADRAGGGGRGD-OH)
30.5 ± 7.17 | 54.6 ± 12.2 | 0.0328 | 37.86 ± 0.28 |  |  |  |  | C[C@H](NC(=O)CNC(=O)[C@H](CCCNC(=N)N)NC(=O)CCCCCCN1C(=O)C=CC1=O)C(=O)N[C@@H](CC(=O)O)C(=O)N[C@@H](CCCNC(=N)N)C(=O)N[C@@H](C)C(=O)NCC(=O)NCC(=O)NCC(=O)NCC(=O)N[C@@H](CCCNC(=N)N)C(=O)NCC(=O)N[C@@H](CC(=O)O)C(=O)O [X6] (X83-RGADRAGGGGRGD-OH)
34 ± 7.83 | 60.9 ± 10.7 | 0.0294 | 42.23 ± 0.27 |  |  |  |  | C[C@H](NC(=O)CNC(=O)[C@H](CCCNC(=N)N)NC(=O)CCCCc1ccc(N2C(=O)C=CC2=O)cc1)C(=O)N[C@@H](CC(=O)O)C(=O)N[C@@H](CCCNC(=N)N)C(=O)N[C@@H](C)C(=O)NCC(=O)NCC(=O)NCC(=O)NCC(=O)N[C@@H](CCCNC(=N)N)C(=O)NCC(=O)N[C@@H](CC(=O)O)C(=O)O [X40] (X69-RGADRAGGGGRGD-OH)
30.7 ± 8.17 | 54.9 ± 11.5 | 0.0326 | 38.06 ± 0.28 |  |  |  |  | C[C@H](NC(=O)CNC(=O)[C@H](CCCNC(=N)N)NC(=O)CCCCCOCCOCCOCCOCCOCCN1C(=O)C=CC1=O)C(=O)N[C@@H](CC(=O)O)C(=O)N[C@@H](CCCNC(=N)N)C(=O)N[C@@H](C)C(=O)NCC(=O)NCC(=O)NCC(=O)NCC(=O)N[C@@H](CCCNC(=N)N)C(=O)NCC(=O)N[C@@H](CC(=O)O)C(=O)O [X81] (X11-RGADRAGGGGRGD-OH)
26.9 ± 8.29 | 48.2 ± 14.3 | 0.0372 | 33.38 ± 0.32 |  |  |  |  | C[C@H](NC(=O)CNC(=O)[C@H](CCCNC(=N)N)NC(=O)CCCCCCCOCCOCCOCCN1C(=O)C=CC1=O)C(=O)N[C@@H](CC(=O)O)C(=O)N[C@@H](CCCNC(=N)N)C(=O)N[C@@H](C)C(=O)NCC(=O)NCC(=O)NCC(=O)NCC(=O)N[C@@H](CCCNC(=N)N)C(=O)NCC(=O)N[C@@H](CC(=O)O)C(=O)O [X69] (X6-RGADRAGGGGRGD-OH)
26.7 ± 7.42 | 47.8 ± 9.93 | 0.0374 | 33.14 ± 0.31 |  |  |  |  | C[C@H](NC(=O)CNC(=O)[C@H](CCCNC(=N)N)NC(=O)CCCCCCCc1ccc(N2C(=O)C=CC2=O)cc1)C(=O)N[C@@H](CC(=O)O)C(=O)N[C@@H](CCCNC(=N)N)C(=O)N[C@@H](C)C(=O)NCC(=O)NCC(=O)NCC(=O)NCC(=O)N[C@@H](CCCNC(=N)N)C(=O)NCC(=O)N[C@@H](CC(=O)O)C(=O)O [X43] (X44-RGADRAGGGGRGD-OH)

Reference: patent US20200270309A1, “MALEIMIDE GROUP-MODIFIED ANGIOGENESIS INHIBITOR HM-1 AND USE THEREOF” (NANJING ANJI BIOLOGICAL TECHNOLOGY CO., LTD, priority 2017, published 2020)
